Measured values reported in publication PMC10518257 (Nature Cancer, 2023).
Where “and” joins values, the source holds several entries; their conditions need not be identical. Equal entries are not always repeated.

How the values were obtained:
[1] = system: LUAD-0057AS1 PDX; assay: PDX efficacy study; conditions: for Change in Tumor Volume: end of study, individual tumors
[2] = system: ECLC5 xenografts; assay: Subcutaneous xenograft efficacy study; conditions: for Change in Tumor Volume: end of study, individual tumors
[3] = 50 mg/kg BID, day 14, individual animals
[4] = 100 mg/kg QD, day 0, individual animals
[5] = 100 mg/kg QD, day 7, individual animals
[6] = 100 mg/kg QD, day 14, individual animals

In the case of COCc1ccc(NC(=O)c2c(C#CCN3CCOCC3)n(C3(C)CC3)c3ncnc(N)c23)cc1 [Vepafestinib, 4-amino-N-[4-(methoxymethyl)phenyl]-7-(1-methylcyclopropyl)-6-[3-(morpholin-4-yl)prop-1-yn-1-yl]-7H-pyrrolo[2,3-d]pyrimidine-5-carboxamide], the Tumor volume [1, 3] was 89.72 mm3 and 88.25 mm3 (2×) and 78.99 mm3 and 76.27 mm3 and 80.7 mm3 and 72.18 mm3, the Tumor volume ([1]; 50 mg/kg BID, day 19, individual animals) was 80.35 mm3 and 77.63 mm3 and 73.3 mm3 (2×) and 71.99 mm3 and 88.25 mm3 and 72.18 mm3 and the Tumor volume ([1]; 50 mg/kg BID, day 23, individual animals) was 80.35 mm3 and 82.12 mm3 and 74.61 mm3 and 73.3 mm3 and 71.99 mm3 and 109.29 mm3. The “Change in Tumor Volume” value ([1]; 50 mg/kg BID) was -49.1416% and -46.5865% and -45.4098% and -45.6037% and -52.0319% and -45.807% and -21.5096% and -48.8204%, the tumor shrinkage ([1]; 100 mg per kg QD) was 48% ± 1% and the “Area Under Curve of tumor growth, Mean” value ([1]; 100 mg/kg QD) was -1469. The Tumor volume [1, 4] was 145.84 mm3 (3×) and 143.69 mm3 and 141.32 mm3 and 152.81 mm3 and 139.24 mm3 and 148.22 mm3, the Tumor volume ([1]; 100 mg/kg QD, day 3, individual animals) was 79.29 mm3 and 83.83 mm3 and 80.7 mm3 (2×) and 91.87 mm3 (3×) and 95.24 mm3 and the Tumor volume [1, 5] was 71.99 mm3 and 77.87 mm3 and 69.14 mm3 and 72.18 mm3 and 69.38 mm3 and 74.61 mm3 and 80.7 mm3 and 70.69 mm3. For the same molecule, the Tumor volume ([1]; 100 mg/kg QD, day 10, individual animals) was 71.99 mm3 and 80.89 mm3 and 66.35 mm3 and 72.18 mm3 and 69.38 mm3 and 74.61 mm3 and 77.87 mm3 and 70.69 mm3, the Tumor volume [1, 6] was 77.63 mm3 (2×) and 83.83 mm3 and 74.61 mm3 (2×) and 69.38 mm3 and 87.03 mm3 and 75.92 mm3 and the Tumor volume ([1]; 100 mg/kg QD, day 19, individual animals) was 68.09 mm3 and 80.7 mm3 and 73.3 mm3 (2×) and 77.63 mm3 and 74.61 mm3 (2×) and 78.99 mm3. The “Change in Tumor Volume” value ([1]; 100 mg/kg QD) was -49.7394% and -48.9874% and -48.1319% and -52.0319% and -45.2241% and -47.703% and -43.6917% and -45.79%, the “Area Under Curve of tumor growth, Mean” value ([2]; 25 mg/kg BID) was -1045 and the Tumor volume ([2]; 25 mg/kg BID, day 0, individual animals) was 91.87 mm3 (2×) and 88.56 mm3 (2×) and 85.31 mm3. The Tumor volume ([2]; 25 mg/kg BID, day 4, individual animals) was 74.9 mm3 (2×) and 77.87 mm3 and 71.99 mm3 and 69.38 mm3, the Tumor volume ([2]; 25 mg/kg BID, day 7, individual animals) was 60.32 mm3 (2×) and 59.11 mm3 and 58.99 mm3 (2×) and the Tumor volume ([2]; 25 mg/kg BID, day 11, individual animals) was 60.32 mm3 and 48.77 mm3 and 55.52 mm3 and 54.07 mm3 (2×). The Tumor volume ([2]; 25 mg/kg BID, day 14, individual animals) was 60.32 mm3 and 48.77 mm3 and 55.52 mm3 and 54.07 mm3 (2×), the “Change in Tumor Volume” value ([2]; 25 mg/kg BID) was -43.3221% and -50.8017% and -52.5743% and -65.5492% and -27.8004% and the tumor regression ([2]; 50 mg per kg BID) was 100% ± 0%. The “Area Under Curve of tumor growth, Mean” value ([2]; 50 mg/kg BID) was -1486, the Tumor volume ([2]; 50 mg/kg BID, day 0, individual animals) was 83.83 mm3 and 88.56 mm3 (2×) and 87.03 mm3 and 85.31 mm3 and the Tumor volume ([2]; 50 mg/kg BID, day 4, individual animals) was 68.07 mm3 and 72.18 mm3 (2×) and 66.63 mm3 (2×). For the same molecule, the Tumor volume ([2]; 50 mg/kg BID, day 7, individual animals) was 39.61 mm3 and 59.11 mm3 and 58.99 mm3 and 61.52 mm3 and 53.18 mm3, the Tumor volume ([2]; 50 mg/kg BID, day 11, individual animals) was 36.97 mm3 and 42.6 mm3 and 49.37 mm3 and 48.41 mm3 and 48.77 mm3 and the Tumor volume [2, 3] was 36.97 mm3 and 42.6 mm3 and 41.37 mm3 and 45.5 mm3 and 44.53 mm3. For the same molecule, the “Change in Tumor Volume” value ([2]; 50 mg/kg BID) was -100%, the “Area Under Curve of tumor growth, Mean” value ([2]; 50 mg/kg QD) was -1322 and the Tumor volume ([2]; 50 mg/kg QD, day 0, individual animals) was 85.31 mm3 and 83.83 mm3 and 88.56 mm3 and 91.87 mm3 and 90.28 mm3. For the same molecule, the Tumor volume ([2]; 50 mg/kg QD, day 4, individual animals) was 72.18 mm3 (2×) and 75.04 mm3 and 68.07 mm3 and 69.38 mm3, the Tumor volume ([2]; 50 mg/kg QD, day 7, individual animals) was 50.89 mm3 and 53.18 mm3 and 49.83 mm3 (2×) and 48.77 mm3 and the Tumor volume ([2]; 50 mg/kg QD, day 11, individual animals) was 52.07 mm3 (2×) and 57.91 mm3 and 49.83 mm3 and 48.77 mm3. The Tumor volume ([2]; 50 mg/kg QD, day 14, individual animals) was 52.07 mm3 (2×) and 57.91 mm3 and 48.77 mm3 and 62.73 mm3, the “Change in Tumor Volume” value ([2]; 50 mg/kg QD) was -57.7775% and -61.9945% and -68.4282% and -71.9277% and -43.6309% and the tumor regression ([2]; 100 mg per kg QD) was 90.3% ± 4%. The “Area Under Curve of tumor growth, Mean” value ([2]; 100 mg/kg QD) was -1970, the Tumor volume [2, 4] was 91.87 mm3 (2×) and 88.56 mm3 and 85.31 mm3 (2×) and the Tumor volume ([2]; 100 mg/kg QD, day 4, individual animals) was 47.71 mm3 and 52.07 mm3 (2×) and 49.83 mm3 and 50.97 mm3. The Tumor volume [2, 5] was 38.79 mm3 and 35.19 mm3 and 30.11 mm3 (2×) and 25.42 mm3, the Tumor volume ([2]; 100 mg/kg QD, day 11, individual animals) was 38.79 mm3 and 35.19 mm3 and 26.94 mm3 (2×) and 30.11 mm3 and the Tumor volume [2, 6] was 34.35 mm3 and 35.19 mm3 and 26.94 mm3 and 28.5 mm3 and 30.11 mm3. For the same molecule, the “Change in Tumor Volume” value ([2]; 100 mg/kg QD) was -85.621% and -100% and -81.7724% and -84.0971%.
